Laboratory results from ChEMBL document CHEMBL2321698, “Novel Amino-Nicotinamide Derivatives as Modulators of KCNQ2/3 Potassium Channels” (2013).

Tests used:
[1] = molecular target: T1, Voltage-gated potassium channel, KQT; KCNQ2(Kv7.2)/KCNQ3(Kv7.3) (Homo sapiens) (UniProt O43526+O43525); experiment: Modulation of human KCNQ2/3 channel expressed in CHO-K1 cells by fluorescence assay; type: cell-based
[2] = system: Rattus norvegicus; experiment: Antinociceptive activity in po dosed Sprague-Dawley rat by low intensity tail flick test; type: functional
[3] = molecular target: T1, Voltage-gated potassium channel, KQT; KCNQ2(Kv7.2)/KCNQ3(Kv7.3) (Homo sapiens); experiment: Modulation of human KCNQ2/3 channel expressed in CHO-K1 cells by fluorescence assay relative to retigabine; type: cell-based; parameters: concentration or dose not given beside the values

Row | Activity [1] [nM] | Activity [3] [%] | Structure (SMILES) | ED50 [2] [mg/kg]
1 | 483 | 245 | Cc1cc(N2CCOCC2)nc(C2CC2)c1C(=O)NC[C@@H]1CCCC[C@H]1O | 67
2 | 206 | 215 | CCSc1nc(N2CCOCC2)cc(C)c1C(=O)NCCCC(C)C | 46
3 | 736 | 155 | COc1nc(N2CCOCC2)cc(C)c1C(=O)NCc1cccc(F)c1 | 79
4 | 124 | 158 | CCSc1nc(N2CCOCC2)cc(C)c1C(=O)NCc1ccc(F)cc1 | 94
5 | 42 | 244 | CCSc1nc(N2CCOCC2)cc(C)c1C(=O)NCCCC(C)(C)C | 100
6 | 181 | 176 | CCCc1nc(N2CCOCC2)cc(C)c1C(=O)NCc1cccc(F)c1 | 81
7 | 56 | 160 | CCSc1nc(N2CCOCC2)cc(C)c1C(=O)NCc1cc(C)cc(F)c1 | 78
8 | 134 | 171 | CCSc1nc(N2CCOCC2)cc(C)c1C(=O)NCc1cccc(F)c1 | 4.3
